In patent US20170173002A1, “Compositions and Methods for Treating an Infection” (CMPD LICENSING, LLC, priority 2015, published 2017):

How the values were obtained:
Klebsiella pneumoniae = experiment: Expected efficacy of antibiotic agents; conditions: expected efficacy against Klebsiella pneumoniae
Enterobacter aerogenes = experiment: Expected efficacy of antibiotic agents; conditions: expected efficacy against Enterobacter aerogenes
Bacteroides fragilis = experiment: Expected efficacy of antibiotic agents; conditions: expected efficacy against Bacteroides fragilis
Rickettsiae = conditions: expected efficacy against Rickettsiae
Enterococcus faecium = experiment: Expected efficacy of antibiotic agents; conditions: expected efficacy against Enterococcus faecium
Pseudomonas fluorescens = experiment: Expected efficacy of antibiotic agents; conditions: expected efficacy against Pseudomonas fluorescens
Proteus mirabilis = experiment: Expected efficacy of antibiotic agents; conditions: expected efficacy against Proteus mirabilis
Mycoplasma pneumoniae = experiment: Expected efficacy of antibiotic agents; conditions: expected efficacy against Mycoplasma pneumoniae
Streptococcus pneumoniae = experiment: Expected efficacy of antibiotic agents; conditions: expected efficacy against Streptococcus pneumoniae
Enterobacter cloacae = experiment: Expected efficacy of antibiotic agents; conditions: expected efficacy against Enterobacter cloacae
Providencia stuartii = experiment: Expected efficacy of antibiotic agents; conditions: expected efficacy against Providencia stuartii
Chlamydia trachomatis = experiment: Expected efficacy of antibiotic agents; conditions: expected efficacy against Chlamydia trachomatis
Francisella tularensis = conditions: expected efficacy against Francisella tularensis
[1] = tested on: Methicillin resistant staph aureus (MRSA); experiment: Expected efficacy of antibiotic agents; conditions: expected efficacy against Methicillin resistant staph aureus (MRSA)
Escherichia coli = experiment: Expected efficacy of antibiotic agents; conditions: expected efficacy against Escherichia coli
[2] = tested on: Acinetobacter calcoaceticus; experiment: Expected efficacy of antibiotic agents; conditions: expected efficacy against Acinetobacter calcoaceticus
Acinetobacter lwoffii = experiment: Expected efficacy of antibiotic agents; conditions: expected efficacy against Acinetobacter lwoffii
Citrobacter freundii = experiment: Expected efficacy of antibiotic agents; conditions: expected efficacy against Citrobacter freundii
Haemophilus influenzae = experiment: Expected efficacy of antibiotic agents; conditions: expected efficacy against Haemophilus influenzae
Brucella species = conditions: expected efficacy against Brucella species
Corynebacterium jeikeium = experiment: Expected efficacy of antibiotic agents; conditions: expected efficacy against Corynebacterium jeikeium
Streptococcus pyogenes = experiment: Expected efficacy of antibiotic agents; conditions: expected efficacy against Streptococcus pyogenes
Legionella pneumophila = conditions: expected efficacy against Legionella pneumophila
Acinetobacter baumannii = experiment: Expected efficacy of antibiotic agents; conditions: expected efficacy against Acinetobacter baumannii
Bartonella bacilliformis = experiment: Expected efficacy of antibiotic agents; conditions: expected efficacy against Bartonella bacilliformis
Chlamydia pneumoniae = experiment: Expected efficacy of antibiotic agents; conditions: expected efficacy against Chlamydia pneumoniae
Vibrio cholerae = experiment: Expected efficacy of antibiotic agents; conditions: expected efficacy against Vibrio cholerae
Enterobacter sakazakii = experiment: Expected efficacy of antibiotic agents; conditions: expected efficacy against Enterobacter sakazakii
[3] = tested on: Klebsiella (Calymmatobacterium) granulomatis; experiment: Expected efficacy of antibiotic agents; conditions: expected efficacy against Klebsiella (Calymmatobacterium) granulomatis
[4] = tested on: Staphylococcus epidermidis; experiment: Expected efficacy of antibiotic agents; conditions: expected efficacy against Staphylococcus epidermidis
Klebsiella oxytoca = experiment: Expected efficacy of antibiotic agents; conditions: expected efficacy against Klebsiella oxytoca
Providencia rettgeri = experiment: Expected efficacy of antibiotic agents; conditions: expected efficacy against Providencia rettgeri
Moraxella catarrhalis = experiment: Expected efficacy of antibiotic agents; conditions: expected efficacy against Moraxella catarrhalis
Campylobacter jejuni = experiment: Expected efficacy of antibiotic agents; conditions: expected efficacy against Campylobacter jejuni
Serratia marcescens = experiment: Expected efficacy of antibiotic agents; conditions: expected efficacy against Serratia marcescens
Citrobacter diversus = experiment: Expected efficacy of antibiotic agents; conditions: expected efficacy against Citrobacter diversus
Pseudomonas aeruginosa = experiment: Expected efficacy of antibiotic agents; conditions: expected efficacy against Pseudomonas aeruginosa
Bordetella pertussis = experiment: Expected efficacy of antibiotic agents; conditions: expected efficacy against Bordetella pertussis
Clostridium perfringens = conditions: expected efficacy against Clostridium perfringens
Morganella morganii = experiment: Expected efficacy of antibiotic agents; conditions: expected efficacy against Morganella morganii
Streptococcus agalactiae = experiment: Expected efficacy of antibiotic agents; conditions: expected efficacy against Streptococcus agalactiae
Clostridium difficile = experiment: Expected efficacy of antibiotic agents; conditions: expected efficacy against Clostridium difficile
Proteus vulgaris = experiment: Expected efficacy of antibiotic agents; conditions: expected efficacy against Proteus vulgaris
[5] = tested on: Staphylococcus aureus (MSSA); experiment: Expected efficacy of antibiotic agents; conditions: expected efficacy against Staphylococcus aureus (MSSA)
Neisseria meningitidis = experiment: Expected efficacy of antibiotic agents; conditions: expected efficacy against Neisseria meningitidis
Chlamydia psittaci = conditions: expected efficacy against Chlamydia psittaci
Enterococcus faecalis = experiment: Expected efficacy of antibiotic agents; conditions: expected efficacy against Enterococcus faecalis
Shigella dysenteriae = experiment: Expected efficacy of antibiotic agents; conditions: expected efficacy against Shigella dysenteriae
Yersinia pestis = conditions: expected efficacy against Yersinia pestis
[6] = tested on: Corynebacterium urealyticum; experiment: Expected efficacy of antibiotic agents; conditions: expected efficacy against Corynebacterium urealyticum
Shigella flexneri = experiment: Expected efficacy of antibiotic agents; conditions: expected efficacy against Shigella flexneri
Shigella boydii = experiment: Expected efficacy of antibiotic agents; conditions: expected efficacy against Shigella boydii
Salmonella typhi = experiment: Expected efficacy of antibiotic agents; conditions: expected efficacy against Salmonella typhi
Shigella sonnei = experiment: Expected efficacy of antibiotic agents; conditions: expected efficacy against Shigella sonnei
Haemophilus ducreyi = experiment: Expected efficacy of antibiotic agents; conditions: expected efficacy against Haemophilus ducreyi
Neisseria gonorrhoeae = experiment: Expected efficacy of antibiotic agents; conditions: expected efficacy against Neisseria gonorrhoeae
[7] = tested on: Haemophilus parainfluenzae; experiment: Expected efficacy of antibiotic agents; conditions: expected efficacy against Haemophilus parainfluenzae
Candida species = experiment: Expected efficacy of antifungal agents; conditions: expected efficacy against Candida species

Measured: Efficacy

CC[C@H]1OC(=O)[C@H](C)[C@@H](O[C@H]2C[C@@](C)(OC)[C@@H](O)[C@H](C)O2)[C@H](C)[C@@H](O[C@@H]2O[C@H](C)C[C@H](N(C)C)[C@H]2O)[C@](C)(O)C[C@@H](C)CN(C)[C@H](C)[C@@H](O)[C@]1(C)O [Azithromycin]
yes: Rickettsiae | Mycoplasma pneumoniae | Streptococcus pneumoniae | Chlamydia trachomatis | Haemophilus influenzae | Streptococcus pyogenes | Legionella pneumophila | Bartonella bacilliformis | Chlamydia pneumoniae | Vibrio cholerae | [4] | Moraxella catarrhalis | Campylobacter jejuni | Bordetella pertussis | Streptococcus agalactiae | [5] | Neisseria meningitidis | Chlamydia psittaci
not listed: Shigella dysenteriae | Yersinia pestis | [6] | Shigella flexneri | Shigella boydii | Salmonella typhi | Shigella sonnei | Haemophilus ducreyi | Neisseria gonorrhoeae | [7] | Candida species
no: all other assays above

C/C(=C\C(=O)OCCCCCCCCC(=O)O)C[C@@H]1OC[C@H](C[C@@H]2O[C@H]2[C@@H](C)[C@H](C)O)[C@@H](O)[C@H]1O [Bactroban]
yes: [1] | Streptococcus pyogenes | [5]
not listed: Bacteroides fragilis | Enterococcus faecium | Mycoplasma pneumoniae | Streptococcus pneumoniae | Chlamydia trachomatis | Chlamydia pneumoniae | [4] | Streptococcus agalactiae | Clostridium difficile | Chlamydia psittaci | Enterococcus faecalis | [7] | Candida species
no: all other assays above

O=C(O)c1cn(C2CC2)c2cc(N3CCNCC3)c(F)cc2c1=O [Ciprofloxacin, ciprofloxacin]
no: Bacteroides fragilis | Enterococcus faecium | [1] | Corynebacterium jeikeium
not listed: Mycoplasma pneumoniae | Streptococcus pneumoniae | Enterobacter cloacae | Chlamydia trachomatis | [2] | Acinetobacter lwoffii | Brucella species | Streptococcus pyogenes | Acinetobacter baumannii | Enterobacter sakazakii | [3] | Bordetella pertussis | Clostridium perfringens | Streptococcus agalactiae | Clostridium difficile | [5] | Chlamydia psittaci | Enterococcus faecalis | [6] | Haemophilus ducreyi | Candida species
yes: all other assays above

C[C@@H]1[C@H](O)[C@@H](C)/C=C/C=C/CC/C=C/C=C/C=C/C=C/C(O[C@H]2O[C@H](C)[C@@H](O)[C@H](N)[C@@H]2O)CC2O[C@](O)(CC(O)C(O)CCC(O)CC(O)CC(O)CC(=O)O[C@H]1C)CC(O)C2C(=O)O (stereo partly shown) [Nystatin, nystatin]
yes: Candida species
